# Tests used:
# Assay type in all cases: functional
# Mus musculus [1] = assay: Antileukemic activity of compound against the P-388 lymphocytic leukemic BDF1 male mice at 25(mg/kg)/day, administered intraperitoneally; 10.6/9.66 (Treated/control)
# Mus musculus [2] = assay: In vivo antileukemic activity against P-388 lymphocytic leukemia in BDF1 male mice at 60 mg/kg/day intraperitoneal dose expressed as T/C
# Mus musculus [3] = assay: Antileukemic activity of compound against the P-388 lymphocytic leukemic BDF1 male mice at 3(mg/kg)/day, administered intraperitoneally; 13.8/9.66 (Treated/control)
# Mus musculus [4] = assay: Antileukemic activity of compound against the P-388 lymphocytic leukemic BDF1 male mice at 30(mg/kg)/day, administered intraperitoneally; 16.2/9.66 (Treated/control)
# Mus musculus [5] = assay: Antileukemic activity of compound against the P-388 lymphocytic leukemic BDF1 male mice at 15(mg/kg)/day, administered intraperitoneally; 25.2/9.66 (Treated/control)
# Mus musculus [6] = assay: Antileukemic activity of compound against the P-388 lymphocytic leukemic BDF1 male mice at 60 mg/kg/day, administered intraperitoneally; 5.8/9.66 (Treated/control); conditions: route intraperitoneal
# Mus musculus [7] = assay: Antileukemic activity of compound against the P-388 lymphocytic leukemic BDF1 male mice at 8(mg/kg)/day, administered intraperitoneally; 13.8/9.66 (Treated/control)
# Mus musculus [8] = assay: In vivo antileukemic activity against P-388 lymphocytic leukemia in BDF1 male mice at 8(mg/kg)/day intraperitoneal dose expressed as T/C
# Mus musculus [9] = assay: In vivo antileukemic activity against P-388 lymphocytic leukemia in BDF1 male mice at 15(mg/kg)/day intraperitoneal dose expressed as T/C
# Mus musculus [10] = assay: In vivo antileukemic activity against P-388 lymphocytic leukemia in BDF1 male mice at 3(mg/kg)/day intraperitoneal dose expressed as T/C
# Mus musculus [11] = assay: In vivo antileukemic activity against P-388 lymphocytic leukemia in BDF1 male mice at 30(mg/kg)/day intraperitoneal dose expressed as T/C
# Mus musculus [12] = assay: Antileukemic activity of compound against the P-388 lymphocytic leukemic BDF1 male mice at 15(mg/kg)/day, administered intraperitoneally; 11.4/9.66 (Treated/control)
# Mus musculus [13] = assay: Antileukemic activity of compound against the P-388 lymphocytic leukemic BDF1 male mice at 25(mg/kg)/day, administered intraperitoneally; 13.3/9.66 (Treated/control)
# Mus musculus [14] = assay: Antileukemic activity of compound against the P-388 lymphocytic leukemic BDF1 male mice at 8(mg/kg)/day, administered intraperitoneally; […]/[…] (Treated/control)
# Mus musculus [15] = assay: In vivo antileukemic activity against P-388 lymphocytic leukemia in BDF1 male mice at 25(mg/kg)/day intraperitoneal dose expressed as T/C
# Mus musculus [16] = assay: Antileukemic activity of compound against the P-388 lymphocytic leukemic BDF1 male mice at 5(mg/kg)/day, administered intraperitoneally; 11.8/9.66 (Treated/control)
# Mus musculus [17] = assay: Antileukemic activity of compound against the P-388 lymphocytic leukemic BDF1 male mice at 15(mg/kg)/day, administered intraperitoneally; 11.1/9.66 (Treated/control)
# Mus musculus [18] = assay: In vivo antileukemic activity against P-388 lymphocytic leukemia in BDF1 male mice at 5(mg/kg)/day intraperitoneal dose expressed as T/C
# Mus musculus [19] = assay: Antileukemic activity of compound against the P-388 lymphocytic leukemic BDF1 male mice at 30(mg/kg)/day, administered intraperitoneally; 15.2/9.66 (Treated/control)
# Mus musculus [20] = assay: Antileukemic activity of compound against the P-388 lymphocytic leukemic BDF1 male mice at 4(mg/kg)/day, administered intraperitoneally; 11.0/9.66 (Treated/control)
# Mus musculus [21] = assay: Antileukemic activity of compound against the P-388 lymphocytic leukemic BDF1 male mice at 2(mg/kg)/day, administered intraperitoneally; 11.6/9.66 (Treated/control)
# Mus musculus [22] = assay: Antileukemic activity of compound against the P-388 lymphocytic leukemic BDF1 male mice at 15(mg/kg)/day, administered intraperitoneally; 13.6/9.66 (Treated/control)
# Mus musculus [23] = assay: Antileukemic activity of compound against the P-388 lymphocytic leukemic BDF1 male mice at 60 mg/kg/day, administered intraperitoneally; 12.6/9.66 (Treated/control); conditions: route intraperitoneal
# Mus musculus [24] = assay: In vivo antileukemic activity against P-388 lymphocytic leukemia in BDF1 male mice at 4(mg/kg)/day intraperitoneal dose expressed as T/C
# Mus musculus [25] = assay: In vivo antileukemic activity against P-388 lymphocytic leukemia in BDF1 male mice at 2(mg/kg)/day intraperitoneal dose expressed as T/C
# Mus musculus [26] = assay: Antileukemic activity of compound against the P-388 lymphocytic leukemic BDF1 male mice at 15(mg/kg)/day, administered intraperitoneally; 13.2/9.66 (Treated/control)
# Mus musculus [27] = assay: Antileukemic activity of compound against the P-388 lymphocytic leukemic BDF1 male mice at 8(mg/kg)/day, administered intraperitoneally; 11.8/9.66 (Treated/control)
# Mus musculus [28] = assay: Antileukemic activity of compound against the P-388 lymphocytic leukemic BDF1 male mice at 15(mg/kg)/day, administered intraperitoneally (Treated/control)
# Mus musculus [29] = assay: Antileukemic activity of compound against the P-388 lymphocytic leukemic BDF1 male mice at 30(mg/kg)/day, administered intraperitoneally; 15.4/9.66 (Treated/control)
# Mus musculus [30] = assay: Antileukemic activity of compound against the P-388 lymphocytic leukemic BDF1 male mice at 15(mg/kg)/day, administered intraperitoneally; 18.7/9.66 (Treated/control)
# Mus musculus [31] = assay: Antileukemic activity of compound against the P-388 lymphocytic leukemic BDF1 male mice at 60 mg/kg/day, administered intraperitoneally; 12.7/9.66 (Treated/control); conditions: route intraperitoneal
# Mus musculus [32] = assay: Antileukemic activity of compound against the P-388 lymphocytic leukemic BDF1 male mice at 8(mg/kg)/day, administered intraperitoneally; 14.0/9.66 (Treated/control)
# Mus musculus [33] = assay: Antileukemic activity of compound against the P-388 lymphocytic leukemic BDF1 male mice at 15(mg/kg)/day, administered intraperitoneally; 11.0/9.66 (Treated/control)
# Mus musculus [34] = assay: Antileukemic activity of compound against the P-388 lymphocytic leukemic BDF1 male mice at 3(mg/kg)/day, administered intraperitoneally; 12.9/9.66 (Treated/control)
# Mus musculus [35] = assay: Antileukemic activity of compound against the P-388 lymphocytic leukemic BDF1 male mice at 25(mg/kg)/day, administered intraperitoneally; 12.3/9.66 (Treated/control)
# Mus musculus [36] = assay: Antileukemic activity of compound against the P-388 lymphocytic leukemic BDF1 male mice at 60 mg/kg/day, administered intraperitoneally; 3.0/9.66 (Treated/control); conditions: route intraperitoneal
# Mus musculus [37] = assay: Antileukemic activity of compound against the P-388 lymphocytic leukemic BDF1 male mice at 8(mg/kg)/day, administered intraperitoneally; 15.7/9.66 (Treated/control)
# Mus musculus [38] = assay: Antileukemic activity of compound against the P-388 lymphocytic leukemic BDF1 male mice at 15(mg/kg)/day, administered intraperitoneally; 11.9/9.66 (Treated/control)
# Mus musculus [39] = assay: In vivo antileukemic activity against P-388 Lymphocytic Leukemia in BDF1 male mice at 15(mg/kg)/day intraperitoneal dose expressed as T/C
# Mus musculus [40] = assay: In vivo antileukemic activity against P-388 Lymphocytic Leukemia in BDF1 male mice at 25(mg/kg)/day intraperitoneal dose expressed as T/C
# Mus musculus [41] = assay: In vivo antileukemic activity against P-388 Lymphocytic Leukemia in BDF1 male mice at 60 mg/kg/day intraperitoneal dose expressed as T/C
# Mus musculus [42] = assay: Antileukemic activity of compound against the P-388 lymphocytic leukemic BDF1 male mice at 0.6(mg/kg)/day, administered intraperitoneally; 11/9.66 (Treated/control)
# Mus musculus [43] = assay: Antileukemic activity of compound against the P-388 lymphocytic leukemic BDF1 male mice at 0.6(mg/kg)/day, administered intraperitoneally; 11.0/9.66 (Treated/control)
# Mus musculus [44] = assay: In vivo antileukemic activity against P-388 lymphocytic leukemia in BDF1 male mice at 0.6(mg/kg)/day intraperitoneal dose expressed as T/C
# Mus musculus [45] = assay: Antileukemic activity of compound against the P-388 lymphocytic leukemic BDF1 male mice at 0.6(mg/kg)/day, administered intraperitoneally; 11.6/9.66 (Treated/control)
compound,measurement,setting,value
C=C1C(=O)O[C@@H]2C[C@@H](C)[C@@H]3CCC(=O)[C@@]3(C)[C@@H](O)[C@H]12,Average survival (days),Mus musculus [1],10.6
same,T/C,Mus musculus [2],110%
C=C1C(=O)O[C@@H]2C[C@@H](C)[C@@H]3C=CC(=O)[C@@]3(C)[C@@H](OC(=O)CC(=O)O[C@H]3[C@@H]4C(=C)C(=O)O[C@@H]4C[C@@H](C)[C@@H]4C=CC(=O)[C@]43C)[C@H]12,Average survival (days),Mus musculus [3],13.8
same,Average survival (days),Mus musculus [4],16.2
same,Average survival (days),Mus musculus [5],25.2
same,Average survival (days),Mus musculus [6],5.8
same,Average survival (days),Mus musculus [7],13.8
same,T/C,Mus musculus [2],60%
same,T/C,Mus musculus [8],143%
same,T/C,Mus musculus [9],261%
same,T/C,Mus musculus [10],143%
same,T/C,Mus musculus [11],168%
C[C@@H]1C[C@H]2OC(=O)[C@@H](C)[C@H]2[C@H](O)[C@]2(C)C(=O)C=C[C@@H]12,Average survival (days),Mus musculus [12],11.4
same,Average survival (days),Mus musculus [13],13.3
same,Average survival (days),Mus musculus [14],10.7
same,T/C,Mus musculus [8],111%
same,T/C,Mus musculus [9],118%
same,T/C,Mus musculus [15],138%
CC1C(=O)O[C@@H]2C[C@@H](C)[C@@H]3CCC(=O)[C@@]3(C)[C@@H](OC(=O)CC(=O)O[C@H]3[C@@H]4C(C)C(=O)O[C@@H]4C[C@@H](C)[C@@H]4CCC(=O)[C@]43C)[C@H]12 (stereo partly drawn),Average survival (days),Mus musculus [16],11.8
same,Average survival (days),Mus musculus [17],11.1
same,T/C,Mus musculus [18],122%
same,T/C,Mus musculus [9],115%
C=C1C(=O)O[C@@H]2C[C@@H](C)[C@@H]3CCC(=O)[C@@]3(C)[C@@H](OC(=O)CCC(=O)O[C@H]3[C@@H]4C(=C)C(=O)O[C@@H]4C[C@@H](C)[C@@H]4CCC(=O)[C@]43C)[C@H]12,Average survival (days),Mus musculus [19],15.2
same,Average survival (days),Mus musculus [20],11
same,Average survival (days),Mus musculus [21],11.6
same,Average survival (days),Mus musculus [22],13.6
same,Average survival (days),Mus musculus [23],12.6
same,T/C,Mus musculus [24],114%
same,T/C,Mus musculus [2],130%
same,T/C,Mus musculus [9],141%
same,T/C,Mus musculus [25],120%
same,T/C,Mus musculus [11],157%
C=C1C(=O)O[C@@H]2C[C@@H](C)[C@@H]3CCC(=O)[C@@]3(C)[C@@H](OC(=O)CC(=O)O[C@H]3[C@@H]4C(=C)C(=O)O[C@@H]4C[C@@H](C)[C@@H]4CCC(=O)[C@]43C)[C@H]12,Average survival (days),Mus musculus [26],13.2
same,Average survival (days),Mus musculus [27],11.8
same,T/C,Mus musculus [28],137%
same,T/C,Mus musculus [8],122%
C[C@@H]1C[C@H]2OC(=O)[C@@H](C)[C@H]2[C@H](OC(=O)CCC(=O)O[C@H]2[C@@H]3[C@H](C)C(=O)O[C@@H]3C[C@@H](C)[C@@H]3C=CC(=O)[C@]32C)[C@]2(C)C(=O)C=C[C@@H]12,Average survival (days),Mus musculus [29],15.4
same,Average survival (days),Mus musculus [30],18.7
same,Average survival (days),Mus musculus [31],12.7
same,Average survival (days),Mus musculus [32],14
same,T/C,Mus musculus [2],131%
same,T/C,Mus musculus [8],145%
same,T/C,Mus musculus [9],194%
same,T/C,Mus musculus [11],159%
C=C1C(=O)O[C@@H]2C[C@@H](C)[C@@H]3CCC(=O)[C@@]3(C)[C@@H](OC(=O)CC(=O)OCC)[C@H]12,Average survival (days),Mus musculus [33],11
same,T/C,Mus musculus [2],114%
C=C1C(=O)O[C@@H]2C[C@@H](C)[C@@H]3C=CC(=O)[C@@]3(C)[C@@H](O)[C@H]12 [HELENALIN],Average survival (days),Mus musculus [34],12.9
same,Average survival (days),Mus musculus [35],12.3
same,Average survival (days),Mus musculus [36],3
same,Average survival (days),Mus musculus [37],15.7
same,Average survival (days),Mus musculus [38],11.9
same,T/C,Mus musculus [8],162%
same,T/C,Mus musculus [39],123%
same,T/C,Mus musculus [40],127%
same,T/C,Mus musculus [41],31%
same,T/C,Mus musculus [10],134%
CCOC(=O)CC(=O)OCC [MALONIC ACID DIETHYL ESTER],Average survival (days),Mus musculus [42],11
same,T/C,Mus musculus [2],114%
O=C(O)CC(=O)O [MALONIC ACID],Average survival (days),Mus musculus [43],11
same,T/C,Mus musculus [44],114%
CCOC(=O)CCC(=O)OCC [SUCCINIC ACID DIETHYL ESTER],Average survival (days),Mus musculus [45],11.6
same,T/C,Mus musculus [2],120%
O=C(O)CCC(=O)O [SUCCINIC ACID],T/C,Mus musculus [2],111%

# Reference: ChEMBL document CHEMBL1121678, “Antitumor agents. 44. Bis(helenalinyl) esters and related derivatives as novel potent antileukemic agents” (1981)
